Results published in paper PMC8830681, “Circadian control of heparan sulfate levels times phagocytosis of amyloid beta aggregates” (PLoS Genetics, 2022).
Ends that are not written are not given here.

B1: Heparinase I: Recombinant Flavobacterial heparin lyase I; cleaves in highly sulfated regions of HSPGs (protein, UniProt Q05819 22-384, looked up)
Heparin lyase I: QQKKSGNIPYRVNVQADSAKQKAIIDNKWVAVGINKPYALQYDDKLRFNGKPSYRFELKAEDNSLEGYAAGETKGRTELSYSYATTNDFKKFPPSVYQNAQKLKTVYHYGKGICEQGSSRSYTFSVYIPSSFPDNATTIFAQWHGAPSRTLVATPEGEIKTLSIEEFLALYDRMIFKKNIAHDKVEKKDKDGKITYVAGKPNGWKVEQGGYPTLAFGFSKGYFYIKANSDRQWLTDKADRNNANPENSEVMKPYSSEYKTSTIAYKMPFAQFPKDCWITFDVAIDWTKYGKEANTILKPGKLDVMMTYTKNKKPQKAHIVNQQEILIGRNDDDGYYFKFGIYRVGNSTVPVTYNLSGYSETAR
B2: Heparinase II: Recombinant Flavobacterial heparin lyase II; cleaves in both high- and low-sulfated positions (protein, UniProt C6XZB6 26-772, looked up)
Heparin and heparin-sulfate …: QTKADVVWKDVDGVSMPIPPKTHPRLYLREQQVPDLKNRMNDPKLKKVWADMIKMQEDWKPADIPEVKDFRFYFNQKGLTVRVELMALNYLMTKDPKVGREAITSIIDTLETATFKPAGDISRGIGLFMVTGAIVYDWCYDQLKPEEKTRFVKAFVRLAKMLECGYPPVKDKSIVGHASEWMIMRDLLSVGIAIYDEFPEMYNLAAGRFFKEHLVARNWFYPSHNYHQGMSYLNVRFTNDLFALWILDRMGAGNVFNPGQQFILYDAIYKRRPDGQILAGGDVDYSRKKPKYYTMPALLAGSYYKDEYLNYEFLKDPNVEPHCKLFEFLWRDTQLGSRKPDDLPLSRYSGSPFGWMIARTGWGPESVIAEMKVNEYSFLNHQHQDAGAFQIYYKGPLAIDAGSYTGSSGGYNSPHNKNFFKRTIAHNSLLIYDPKETFSSSGYGGSDHTDFAANDGGQRLPGKGWIAPRDLKEMLAGDFRTGKILAQGFGPDNQTPDYTYLKGDITAAYSAKVKEVKRSFLFLNLKDAKVPAAMIVFDKVVASNPDFKKFWLLHSIEQPEIKGNQITIKRTKNGDSGMLVNTALLPDAANSNITSIGGKGKDFWVFGTNYTNDPKPGTDEALERGEWRVEITPKKAAAEDYYLNVIQIADNTQQKLHEVKRIDGDKVVGVQLADRIVTFSKTSETVDRPFGFSVVGKGTFKFVMTDLLPGTWQVLKDGKILYPALSAKGDDGALYFEGTEGTYRFLR

Legend:
[1] = test system: bone-marrow derived macrophages (BMDMs) from Per2::Luc C57BL/6J mice; experiment: Phagocytosis assay of HiLyte 488 labeled amyloid-beta by serum-shock synchronized macrophages (with or without heparinases); type: cell-based, mouse; settings: for circadian oscillation of the peptide's own phagocytosis (in words): HiLyte 488 labeled peptide, 2 h uptake, mAβ42 every 4 h for 24 h (ECHO), Aβ40 at PS20 and PS32; for Hedges' g, phagocytosis PS20 vs PS32 within the same treatment: for heparinases: Aβ42 phagocytosis in their presence; for Hedges' g, phagocytosis vs Aβ42-alone at PS20 (nadir, CT8) / Hedges' g, phagocytosis vs Aβ42-alone at PS32 (zenith, CT20): >100 cells per replicate, g >0.2 small, >0.5 medium, >0.8 large effect
Description: To do so, we modified a previously-employed BMDM phagocytosis assay (as BMDMs are both models for activated microglia and are known to migrate into the brain in late-stage AD), to use fluorescently labeled Aβ42 to determine if the phagocytosis of Aβ42 is controlled by the circadian clock. In brief, BMDMs were derived from bone marrow progenitor cells extracted from Per2::Luc C57BL/6J mice and differentiated with recombinant Macrophage Colony Stimulating Factor (M-CSF), with flow cytometry confirming complete differentiation into naïve peripheral macrophages. […] 16 h after synchronization, confluent dishes of these BMDMs were treated HiLyte 488 labeled Aβ42 (Anaspec), in triplicate, every 4 h over a 24 h circadian period. BMDMs treated with labeled Aβ42 were harvested two hours after Aβ42 treatment and fixed with formalin. Total cellular fluorescence levels were analyzed with fluorescent confocal microscopy and quantified using a custom cell measurement MATLAB script (Fig 1A, S2 Fig, and S1 Table).
Bone marrow was harvested from the femurs and tibias of one 3–6-month-old male mouse using a 26 g needle and syringe filled with DMEM supplemented media. ACK lysing buffer (Lonza 10-548E) was used to lyse red blood cells in order to prevent erythrocyte contamination. Filtered bone marrow cells were counted using a BioRad TC20 automated cell counter and plated on 35 mm cell culture plates at a density of 1 x 10^6 in macrophage differentiation media. After three days of incubation at 37°C with 5% CO2, fresh macrophage differentiation media was added. After another 3 days of incubation, the cells were washed with 2 ml warm PBS per plate, and replaced with macrophage assay media, and the cultures were incubated for 24 h. Macrophage cultures were then washed with 2 ml warm PBS, macrophage serum starvation media was added, and the plates were incubated in the starve media for 24 h. Next, macrophage serum starvation media was removed, and macrophage serum shock media was added, and cultures were incubated for 2 h. Macrophage cultures were then washed with 2 ml warmed PBS each and macrophage media Luciferin was added. Cultures were sealed with grease and glass cover slips and placed in a LumiCycle 32 luminometer (Actimetrics) to confirm synchronization of circadian rhythmicity. Assays began 16 h post serum shock to allow the synchronized cells to return to homeostasis.
All amyloid-beta isoforms were reconstituted 24 h or less before experimentation in water and PBS (1:1) and were dissolved using sonication for approximately 30 min. The reconstituted Aβ was pooled from individual vials before aliquoting for each experimental replicate. The aliquots were then flash frozen and stored at -80°C until 20 min before use.
Using synchronized macrophages (as described above) starting at PS16 macrophages were treated every 4 h for 24 h, in triplicate, with 115 μl (0.25 mg/ml) of fluorescently labeled amyloid-beta (PS16, PS20, PS24, PS28, PS32, PS36, and PS40) and heparinases at the reported activity levels (S5 Table). The treated macrophages were then incubated at 37°C for 2 h. Following the two-hour incubation, the media was aspirated, and the macrophages were washed with 2ml of PBS three times before Cell Stripper (Corning 25-056-CI) was added to the cultures, which were then incubated at 37°C for 3 min. Detached macrophages were next centrifuged at 400 g for 5 min, the supernatant was aspirated, and the macrophage cell pellets were resuspended in formalin and incubated in the dark at room temperature for 30 min. Macrophages were then centrifuged for 5 min at 400 g, the supernatant was aspirated, and the macrophages were resuspended in 250 μL of PBS and kept at 4°C. The fixed macrophages were imaged using fluorescent microscopy within a week of the experiment. All fluorescent images from the phagocytosis experiments are available on Mendeley Data (doi: 10.17632/zrmgjyggmr.1). […]

[2] = Heparinase enzymatic activity; type: biochemical
Description: We hypothesized that the rhythmic oscillation of HSPGs may inhibit the phagocytosis of Aβ42 due to the antiphase relationship between Aβ42 phagocytosis and PG levels and the published repressive effect of HSPGs on Aβ42 phagocytosis (Figs 1 and 4). To validate this hypothesis, we individually purified Heparinases I, II, and III, removed endotoxins, and confirmed Heparinase enzymatic activity (see Methods) (S5 Table). Heparinase I cleaves between D-glucosamine and L-iduronic acid in highly sulfated regions, heparinase III cleaves between N-acetyl-D-glucosamine in low or unsulfated regions, and heparinase II cleaves in both positions. We then extracted, derived, synchronized, and exposed BMDMs to fluorescently-labeled Aβ42 every 4 h over one circadian day. We next added a mixture of Heparinase I, II, and III to cleave all forms of HSPGs, with each biological replicate receiving a decreasing concentration of total heparinases (Replicate 1: 0.9577mg/ml of total heparinases, Replicate 2: 0.5071 mg/ml of total heparinases, Replicate 3: 0.2794 mg/ml of total heparinases) of the mixture of the three heparinases (see S5 Table). Immediately following the addition of the heparinases, we added fluorescently labeled Aβ42 and sampled Aβ42 levels inside the cell 2 hours later. By using fluorescently labeled Aβ42, we controlled for endogenously generated Aβ, which can be affected by HSPG expression through its interaction with BACE1 processing of the amyloid precursor protein [67].
Heparinases were prepared as has been previously reported. All heparinases used were purified away from endotoxins using an Endotoxin Removal Kit from GenScript (L00338).

[3] = log10 mean cell fluorescence, triplicate
[4] = heparinase stock of the 'All Hep' experiment

| Molecule | circadian oscillation of the peptide's own phagocytosis (in words) ([1]; triplicate) | Hedges' g, total phagocytosis of Aβ40 vs Aβ42 at PS20 and PS32 [1, 3] | Hedges' g, phagocytosis PS20 vs PS32 within the same treatment [1, 3] | Oscillation Type ([1]; ECHO v4.1 fit, average of 3 replicates, log10 mean cell fluorescence, 2 h uptake every 4 h PS16-PS40, WT Per2::Luc BMDMs) | phagocytosis compared to human Aβ42 (in words) ([1]; every 4 h for 24 h, triplicate) | Hedges' g, phagocytosis vs Aβ42-alone at PS20 (nadir, CT8) [1, 3] | Hedges' g, phagocytosis vs Aβ42-alone at PS32 (zenith, CT20) [1, 3] | effect of heparinase treatment on the daily oscillation of Aβ42 phagocytosis (in words) ([1]; heparinase added immediately before HiLyte 488 Aβ42, cells sampled 2 h later, triplicate) | Activities (U/ml) [2, 4] [U/ml] | Activities (U/ml) ([2]; heparinase stock of the 'Hep I only' / 'Hep III only' experiments) |
| --- | --- | --- | --- | --- | --- | --- | --- | --- | --- | --- |
| Amyloid-beta 40 labeled with HiLyte 488 [Aβ40] | no oscillation in Aβ40 phagocytosis | 0.2752 | 0.06734 | – | – | – | – | – | – | – |
| Mouse amyloid-beta 42 labeled with HiLyte 488 (DAEFGHDSGFEVRHQKLVFFAEDVGSNKGAIIGLMVGGVVIA; also: HiLyte 488 label, site not given here; UniProt P12023 672-713, looked up) [mAβ42, custom mouse Aβ42 labeled with HiLyte 488 from Anaspec (SQ-ANCPXXXX)] | did not have a circadian oscillation | – | – | Harmonic | increased phagocytosis compared to human Aβ42 phagocytosis at all sampled times | 3.032 | 2.021 | – | – | – |
| B1 | – | – | 0.1017 | – | – | 0.1328 | 0.635 | loss of daily oscillation | 0.034 | 0.332 |
| B2 | – | – | – | – | – | – | – | – | 1.048 | – |
